Assay results: BigSolDB 2.1

NC(=O)N/N=C/c1ccc([N+](=O)[O-])o1
solubility (mole fraction)
Settings | in DMF | in acetone | in acetonitrile | in ethanol | in ethyl acetate | in formamide | in isopropanol | in methanol | in n-propanol | in water
278.15 K | 0.0194 | 0.000291 | 7.32e-05 | 5.89e-05 | 7.69e-05 | 0.00131 | 2.66e-05 | 0.000137 | 3.6e-05 | 4.23e-06
283.15 K | 0.0202 | 0.000339 | 9.44e-05 | 7.3e-05 | 8.31e-05 | 0.00154 | 3.27e-05 | 0.000168 | 4.98e-05 | 5.75e-06
288.15 K | 0.0207 | 0.00038 | 0.000116 | 8.98e-05 | 9.59e-05 | 0.00178 | 4.03e-05 | 0.000198 | 5.29e-05 | 8.03e-06
293.15 K | 0.0223 | 0.000435 | 0.000146 | 0.000112 | 0.000116 | 0.00205 | 5.09e-05 | 0.000238 | 6.62e-05 | 1.07e-05
298.15 K | 0.023 | 0.000501 | 0.000168 | 0.000136 | 0.00013 | 0.0024 | 6.47e-05 | 0.000284 | 8.61e-05 | 1.27e-05
303.15 K | 0.0255 | 0.00056 | 0.000204 | 0.000165 | 0.000151 | 0.00273 | 8.79e-05 | 0.000338 | 0.000108 | 1.53e-05
308.15 K | 0.0265 | 0.000641 | 0.000246 | 0.000203 | 0.000172 | 0.00313 | 0.000116 | 0.000404 | 0.000139 | 2.05e-05
313.15 K | 0.0279 | 0.000749 | 0.000293 | 0.000247 | 0.000202 | 0.00359 | 0.000151 | 0.000478 | 0.000164 | 2.68e-05
